Laboratory results reported in patent US8354398B2, “Substituted isoxazole compounds” (Bristol-Myers Squibb Company, priority 2009, dated 2013).

Experiments:
circulating lymphocytes [1] = experiment: Blood Lymphocyte Reduction Assay (BLR) in rats; type: in vivo; details: Lewis rats, oral, vs vehicle group
Method: (§1) Lewis rats or BALB/c mice were dosed orally with test article (as a solution or suspension in the vehicle) or vehicle alone (polyethylene glycol 300, “PEG300”). Blood was drawn at 4 hr and 24 h by retro-orbital bleeding. Blood lymphocyte counts were determined on an ADVIA® 120 Hematology Analyzer (Siemens Healthcare Diagnostics). The results were measured as a reduction in the percentage of circulating lymphocytes as compared to the vehicle treated group at the 4 hr and 24 hr measurement. The results represent the average results of all animals within each treatment group (n=3-4).
(§2) Examples 1 and 2 were tested in the Blood Lymphocyte Reduction assay (BLR) described hereinabove and the results are shown in Table D for rats and Table E for mice.

circulating lymphocytes [2] = experiment: Blood Lymphocyte Reduction Assay (BLR) in mice; type: in vivo; details: BALB/c mice, oral, vs vehicle group
Method: as §1, §2

[3] = test system: experimental autoimmune encephalomyelitis (clinical score); experiment: Mouse Experimental Autoimmune Encephalomyelitis Assay (EAE); type: in vivo, C57BL/6 mice; details: for Clinical Score on day 21, Mean: C57BL/6 female mice, vehicle mean 2.79
S1P3 [4] = biological target: T1, S1P3 (Homo sapiens, UniProt Q99500); experiment: Method B: Receptor [35S] GTPγS SPA Binding Assay, membranes from S1P3 transfected CHO cells; type: biochemical; design: expressed in transfected cells; host or cells: CHO cells; details: S1P3 transfected CHO cell membranes, NC = a satisfactory dose response curve was not obtained
Method: Membranes prepared from S1P1 or S1P3 transfected CHO cells (2 μg protein) were incubated in 96-well white plates (CORNING® 3693) with test compounds diluted in DMSO, in 50 μl of reaction mixture containing 7.5 μl WGA-PVT beads (20 mg/ml), and 5 μM GDP, 20 mM HEPES pH 7.4, 100 mM NaCl, 1 mM EDTA, 5 mM MgCl2, 10 μg/ml saponin, 0.1% BSA, and 1 μM leupeptin. The assay was initiated with the addition of 25 μl of 0.2 nM [^35S]-GTPγS (1250 Ci/mmol; NEN) in assay buffer. After 90 min incubation at room temperature, spin the plate at 1000 rpm for 5 min. The bound radionuclides were measured at TOPCOUNT®, expressed as % response relative to S1P (1 μM) activation. Data was analyzed using the four parameter logistic equation in Excel. The four parameters in the equation, Y=A+((B−A)/(1+((EC50/X)^D))), are described as following: A is the Y value (agonist activity) at the bottom plateau; B is the Y value at the top plateau; EC50 is the X value (agonist concentration) when the response is halfway between bottom and top; D is Hill coefficient. Curves were not generated for compounds having Ymax values were below 50%.
Compounds of the present invention and Comparative Compound A were tested in the Receptor [^35S] GTPγS Binding Assays (Method A) and Receptor [35S] In some instances, the value is an average of multiple experiments where N is the number of experiments conducted that provided satisfactory dose response curves. When more than one batch of an example was tested, the value presented is from a batch which allowed a comparison of GTPγS S1P1 and GTPγS S1P3 in which the most number of experiments were performed. Preferably, the same batch was examined in Method A and Method B. Data was not averaged across different batches of an example compound.
Target sequence in this assay (Q99500 whole entry, species assumed): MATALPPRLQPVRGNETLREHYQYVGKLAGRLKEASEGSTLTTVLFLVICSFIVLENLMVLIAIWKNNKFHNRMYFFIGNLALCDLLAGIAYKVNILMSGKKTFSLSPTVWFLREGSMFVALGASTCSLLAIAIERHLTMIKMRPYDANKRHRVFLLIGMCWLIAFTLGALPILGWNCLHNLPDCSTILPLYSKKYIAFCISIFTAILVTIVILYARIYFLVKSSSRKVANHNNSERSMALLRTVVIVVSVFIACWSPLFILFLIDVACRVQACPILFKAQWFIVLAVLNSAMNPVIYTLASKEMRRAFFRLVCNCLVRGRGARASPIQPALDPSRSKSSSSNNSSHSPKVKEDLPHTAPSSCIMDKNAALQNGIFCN

S1P1 = S1P1 (Homo sapiens, UniProt P21453); experiment: Method A: Receptor [35S] GTPγS Binding Assay, membranes from S1P1/CHO cells; type: biochemical; design: expressed in transfected cells; host or cells: S1P1/CHO cells
How it was run: (§3)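 Membranes ([…]) incubated 45 min at room temperature with 3-fold compound dilutions and 0.2 nM final [35S]GTPγS in HEPES pH 7.5 buffer containing 10 μM GDP, MgCl2, EGTA, DTT, BSA and saponin. Bound label collected by filtration and scintillation counting; EC50 taken at 50% of each compound's Ymax.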

S1P3 [5] = biological target: T1, S1P3; experiment: Method A: Receptor [35S] GTPγS Binding Assay, membranes from EDG3-Ga15-bla HEK293T cells; type: biochemical; design: expressed in transfected cells; host or cells: EDG3-Ga15-bla HEK293T cells; details: EDG3-Ga15-bla HEK293T cell membranes
How it was run: as §3
Target sequence in this assay (Q99500 whole entry): as the sequence (Q99500 whole entry, species assumed) above

Sequence of S1P1 (P21453 whole entry): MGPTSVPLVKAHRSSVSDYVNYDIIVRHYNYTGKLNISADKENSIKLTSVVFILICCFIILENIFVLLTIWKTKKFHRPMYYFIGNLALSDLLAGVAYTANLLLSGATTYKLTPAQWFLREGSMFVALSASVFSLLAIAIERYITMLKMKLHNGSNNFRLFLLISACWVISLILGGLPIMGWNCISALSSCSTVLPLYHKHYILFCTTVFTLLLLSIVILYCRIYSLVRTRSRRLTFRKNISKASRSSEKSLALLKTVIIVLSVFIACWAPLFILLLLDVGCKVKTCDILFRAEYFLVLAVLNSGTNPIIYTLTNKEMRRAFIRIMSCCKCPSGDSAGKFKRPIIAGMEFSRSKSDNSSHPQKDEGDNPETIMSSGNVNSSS

O=C(O)C1CN(Cc2ccc(-c3noc(-c4onc(-c5ccccc5)c4C(F)(F)F)n3)cc2)C1 [Example 1, 1-(4-(5-(3-Phenyl-4-(trifluoromethyl)isoxazol-5-yl)-1,2,4-oxadiazol-3-yl)benzyl)azetidine-3-carboxylic acid]
% reduction in lymphocytes at 4 hr. (circulating lymphocytes [1]; 0.03 mg/kg): 75%
% reduction in lymphocytes at 24 hr. (circulating lymphocytes [1]; 0.03 mg/kg): 45%
% reduction in lymphocytes at 4 hr. (circulating lymphocytes [1]; 0.3 mg/kg): 82%
% reduction in lymphocytes at 24 hr. (circulating lymphocytes [1]; 0.3 mg/kg): 73%
% reduction in lymphocytes at 4 hr. (circulating lymphocytes [2]; 0.001 mg/kg): 12%
% reduction in lymphocytes at 24 hr. (circulating lymphocytes [2]; 0.001 mg/kg): 31%
% reduction in lymphocytes at 4 hr. (circulating lymphocytes [2]; 0.01 mg/kg): 32%
% reduction in lymphocytes at 24 hr. (circulating lymphocytes [2]; 0.01 mg/kg): 45%
% reduction in lymphocytes at 4 hr. (circulating lymphocytes [2]; 0.1 mg/kg): 85%
% reduction in lymphocytes at 24 hr. (circulating lymphocytes [2]; 0.1 mg/kg): 89%
% reduction in lymphocytes at 4 hr. (circulating lymphocytes [2]; 1.0 mg/kg): 90%
% reduction in lymphocytes at 24 hr. (circulating lymphocytes [2]; 1.0 mg/kg): 91%
Clinical Score on day 21, Mean ([3]; 0.02 mg/kg once daily from 1 day after immunization): 1.75
Clinical Score on day 21, Mean ([3]; 0.2 mg/kg once daily from 1 day after immunization): 1.13
Clinical Score on day 21, Mean ([3]; 2.0 mg/kg once daily from 1 day after immunization): 1.15
disease progression as determined by the clinical scores ([3]; C57Bl/6 mice, prophylactic oral dosing): inhibits disease progression
EC50 (S1P3 [4]): 510 nM
EC50 (S1P1; Method A, S1P1/CHO cell membranes): 0.68 nM
GTPγS S1P3/S1P1 (Method A) (S1P1; ratio of GTPγS S1P3 EC50 to GTPγS S1P1 EC50, Method A): 1,400
EC50 (S1P3 [5]): 940 nM
